Experimental data from patent US20150031760A1, “PHARMACEUTICAL COMPOSITION FOR PREVENTING OR TREATING NERVOUS SYSTEM DISORDERS COMPRISING SULFURETIN OR PHARMACEUTICALLY ACCEPTABLE SALT THEREOF” (Research and Business Foundation SUNGKYUNKWAN UNIVERSITY, priority 2010, published 2015).

Key:
[1] = system: SH-SY5Y cells; experiment: Inhibition of mitochondrial membrane potential (MMP) damage (rhodamine-123); format: cell-based, human; conditions: hydrogen peroxide-induced damage, 30 minutes pretreatment
Method: (§1) The incubator was maintained at a temperature of 37° C., and a mixed gas of 95% air and 5% CO2 was continuously supplied thereto to provide suitable conditions for cell culture. The cells were cultured in a 6-well plate or a 96-well plate at each of densities of 1×10^6 and 2×10^4 cells/well 24 hours before the experiment. […] Sulfuretin was used in ethanol and used at a final concentration of 0.1% or less.
In order to measure the inhibition of MMP damage, cells were labeled with rhodamine-123 fluorescence, and quantitative analysis was performed using a fluorescence meter. Specifically, the 6-well plate in which the cells have been cultured was pretreated with sulfuretin for 30 minutes and then reacted with hydrogen peroxide for 30 minutes to induce MMP damage. Then, 10 μl of 10 μM rhodamine-123 was added to each well of the plate and allowed to react for 30 minutes. Herein, rhodamine-123 in the incubator was covered with a silver foil such that it would not be exposed to light. The cells that reacted with the rhodamine-123 fluorescent substance were detached with cold PBS and centrifuged at 400 g for 3 minutes. The centrifugation process was repeated twice to wash the fluorescent substance. The washed cells were stirred briefly with 0.5 ml of PBS, and 100 μl was dispensed into each well of a fresh 96-well plate. The fluorescence of the cells was measured at an excitation wavelength of 480 nm and an emission wavelength of 530 nm using a fluorescence meter (Perkinelmer, USA).
The measured fluorescence was substituted into the following equation to calculate ΔΨm:
ΔΨm(%)=[(O.D. of control−O.D. of test group)/O.D. of control]×100

[2] = system: PC12 cells; experiment: MTT (cell viability) test, corticosterone-induced cell death in PC12 cells; format: cell-based; conditions: Rattus norvegicus
Method: For the experiment shown in FIG. 3, PC12 cells were cultured in DMEM medium (Hyclone, Thermo, USA) containing 10% FBS, 5% horse serum and antibiotics (Gibco-BRL, USA). […] The concentration of corticosterone was determined to be 400 μM after evaluation of cell viability.

[3] = system: SH-SY5Y cells; experiment: LDH assay, amyloid beta25-35-induced cytotoxicity; format: cell-based, human; conditions: pretreatment with sulfuretin at 2.5, 5, 10 and 20 μM; 20 μM amyloid beta25-35 for 24 h (p<0.001)
[4] = system: phospho-JNK; experiment: Western blot, phospho-JNK expression; format: cell-based, human; conditions: SH-SY5Y cells
Method: as §1
(§2) In order to identify the effect of sulfuretin on the expression of proteins related to dementia, Alzheimer's disease, Parkinson's disease and strokes, a Western blot test was carried out.
(§3) After 24 hours, the supernatant of each well was collected and centrifuged at 400 g for 3 minutes, and the cells were washed with cold PBS and lysed with 100 μl of T-PER lysis buffer (Thermo, USA) for 30 minutes. The lysates were centrifuged at 10000 g at 4° C. for 15 minutes, and the supernatants were stored at […] until use as test samples. Proteins were quantitatively analyzed using a BCA assay kit (Thermo, USA) and separated within 8.5-12% SDS gel and then transferred to PVDF membranes. To examine the expression of the proteins, the development of fluorescence was analyzed by enhanced chemiluminescence (ECL). Specifically, the membrane was blocked with 5% skimmed non-fat milk for 1 hour and labeled with the primary antibodies, PARP, caspase-3, phospho-p38, phospho-JNK and β-actin at 4° C. overnight. Then, the membrane was washed three times with Tris-tween buffered saline (TTBS), and then labeled with horseradish peroxidase (HRP)-conjugated anti-rabbit and anti-mouse secondary antibodies at room temperature for 1 hour. Then, the membrane was washed five times with TTBS for 10 minutes. The washed film was developed by ECL using x-ray films, and concentrations were quantitatively analyzed using quantitative analysis program (Fujifilm, Japan).

[5] = system: caspase-3; experiment: Western blot, caspase-3 expression; format: cell-based, human; conditions: SH-SY5Y cells
Method: as §1, §2, §3

[6] = system: SH-SY5Y cells; experiment: Inhibition of intracellular [Ca2+] influx (Fura-2-AM fluorescence); format: cell-based, human; conditions: hydrogen peroxide-induced, 30 minutes pretreatment
Method: as §1
In order to measure inhibitory effects on intracellular [Ca^2+] influx caused by oxidative stress, cells were labeled with Fura-2-AM fluorescence, and quantitative analysis was carried out using a fluorescence meter. Specifically, 10 μl of 5 μM Fura-2-AM was added to each well of the 6-well plate (in which the cells have been cultured) and then allowed to react for 30 minutes. Herein, Fura-2-AM in the incubator was covered with a silver foil such that it would not be exposed to light. After completion of the incubation, the plate was pretreated with sulfuretin for 30 minutes, and then reacted with hydrogen peroxide for 30 minutes to induce the intracellular influx of [Ca^2+]. Then, the cells that reacted with the Fura-2-AM fluorescent substance were washed twice with cold HEPES and detached with HEPES. Then, the cells were centrifuged at 400 g for 3 minutes. The supernatant was removed carefully, stirred weakly with 0.5 ml of HEPES buffer, and then 150 μl was dispensed into each well of a fresh 96-well plate. The fluorescence of the sample dispensed into the fresh 96-well plate was measured at an excitation wavelength of […] and an emission wavelength of 520 nm using a fluorescence meter (Perkinelmer, USA).
The measured value was substituted into the following equation to calculate intracellular [Ca^2+] nM: […]

[7] = hydrogen peroxide + sulfuretin 0.1 μg/ml
[8] = hydrogen peroxide + sulfuretin 0.5 μg/ml
[9] = hydrogen peroxide + sulfuretin 1 μg/ml

O=C1/C(=C/c2ccc(O)c(O)c2)Oc2cc(O)ccc21 [sulfuretin] was tested, and the “MMP (ΔΨm)” value ([1]; sulfuretin 0.1 μg/ml) was ≥ 56%, the “MMP (ΔΨm)” value ([1]; sulfuretin 0.5 μg/ml) was ≥ 62% and the “MMP (ΔΨm)” value ([1]; sulfuretin 1 μg/ml) was ≥ 91%. For the same compound, the “MMP (ΔΨm)” value ([1]; sulfuretin 5 μg/ml) was ≥ 98%, the viability at 0.1 µg/mL ([2]; PC-12, read-out: cell viability) was ≥ 52% and the viability at 0.5 µg/mL ([2]; PC-12, corticosterone-induced cell death, sulfuretin 0.5 μg/ml) was ≥ 55%. For the same compound, the viability at 1 µg/mL ([2]; PC-12, corticosterone-induced cell death, sulfuretin 1 μg/ml) was ≥ 72%, the viability at 5 µg/mL ([2]; PC-12, corticosterone-induced cell death, sulfuretin 5 μg/ml) was ≥ 90% and the “LDH activity (LDH release)” value [3] was “significantly decreased”. The phospho-JNK expression [4, 7] was ≤ 261%, the phospho-JNK expression [4, 8] was ≤ 204% and the phospho-JNK expression [4, 9] was ≤ 120%. The caspase-3 expression [5, 7] was ≥ 24%, the caspase-3 expression [5, 8] was ≥ 51% and the caspase-3 expression [5, 9] was ≥ 127%. For the same compound, the “intracellular [Ca2+] influx” value ([6]; sulfuretin 0.1 μg/ml) was ≤ 566 nM, the “intracellular [Ca2+] influx” value ([6]; sulfuretin 0.5 μg/ml) was ≤ 395 nM and the “intracellular [Ca2+] influx” value ([6]; sulfuretin 1 μg/ml) was ≤ 371 nM. The “intracellular [Ca2+] influx” value ([6]; sulfuretin 5 μg/ml) was ≤ 243 nM.
